# Experimental data as given in ChEMBL document CHEMBL3046000, “Design and synthesis of 1-(benzothiazol-5-yl)-1H-1,2,4-triazol-5-ones as protoporphyrinogen oxidase inhibitors” (Bioorg Med Chem, 2013).
# pKi: −log10 of the molar value.
# Test system: Echinochloa crus-galli
# Assay: Post emergence herbicidal activity against Echinochloa crus-galli (barnyard grass) seedlings assessed as plant growth inhibition at 150 g ai/ha measured 15 days after compound treatment under greenhouse conditions
# Assay type: functional
# Conditions: 360 h, read-out: GI
row,Structure (SMILES),inhibition of growth at 150 g/ha [%]
1,Cc1nn(-c2cc3nc(SCC(=O)O)sc3cc2Cl)c(=O)n1C(F)F,≥ 90
2,Cc1nn(-c2cc3nc(SCCC(=O)O)sc3cc2Cl)c(=O)n1C(F)F,< 50
3,C=CCSc1nc2cc(-n3nc(C)n(C(F)F)c3=O)c(Br)cc2s1,< 50
4,COC(=O)CSc1nc2cc(-n3nc(C)n(C(F)F)c3=O)c(Cl)cc2s1,≥ 90

# Test system: Setaria faberi
# Assay: Post-emergence herbicidal activity against Setaria faberi (Giant Foxtail) seedlings assessed as plant growth inhibition at 75 g ai/ha measured 15 days after compound treatment under greenhouse conditions
# Assay type: functional
# Conditions: 360 h, read-out: GI
row,Structure (SMILES),inhibition of growth at 75 g/ha [%]
1,Cc1nn(-c2cc3nc(SCC(=O)O)sc3cc2Cl)c(=O)n1C(F)F,< 50
2,Cc1nn(-c2cc3nc(SCCC(=O)O)sc3cc2Cl)c(=O)n1C(F)F,60
3,COC(=O)CSc1nc2cc(-n3nc(C)n(C(F)F)c3=O)c(Cl)cc2s1,50

# Test system: Amaranthus retroflexus
# Assay: Post emergence herbicidal activity against Amaranthus retroflexus seedlings assessed as plant growth inhibition at 150 g ai/ha measured 15 days after compound treatment under greenhouse conditions
# Assay type: functional
# Conditions: 360 h, read-out: GI
row,Structure (SMILES),inhibition of growth at 150 g/ha [%]
1,Cc1nn(-c2cc3nc(SCC(=O)O)sc3cc2Cl)c(=O)n1C(F)F,≥ 90
2,Cc1nn(-c2cc3nc(SCCC(=O)O)sc3cc2Cl)c(=O)n1C(F)F,≥ 90
3,C=CCSc1nc2cc(-n3nc(C)n(C(F)F)c3=O)c(Br)cc2s1,60
4,COC(=O)CSc1nc2cc(-n3nc(C)n(C(F)F)c3=O)c(Cl)cc2s1,≥ 90

# Test system: Chenopodium album
# Assay: Post-emergence herbicidal activity against Chenopodium album seedlings assessed as plant growth inhibition at 150 g ai/ha measured 15 days after compound treatment under greenhouse conditions
# Assay type: functional
# Conditions: 360 h, read-out: GI
row,Structure (SMILES),inhibition of growth at 150 g/ha [%]
1,Cc1nn(-c2cc3nc(SCC(=O)O)sc3cc2Cl)c(=O)n1C(F)F,≥ 90
2,Cc1nn(-c2cc3nc(SCCC(=O)O)sc3cc2Cl)c(=O)n1C(F)F,≥ 90
3,C=CCSc1nc2cc(-n3nc(C)n(C(F)F)c3=O)c(Br)cc2s1,50
4,COC(=O)CSc1nc2cc(-n3nc(C)n(C(F)F)c3=O)c(Cl)cc2s1,60

# Test system: Chenopodium album
# Assay: Post-emergence herbicidal activity against Chenopodium album seedlings assessed as plant growth inhibition at 75 g ai/ha measured 15 days after compound treatment under greenhouse conditions
# Assay type: functional
# Conditions: 360 h, read-out: GI
row,Structure (SMILES),inhibition of growth at 75 g/ha [%]
1,Cc1nn(-c2cc3nc(SCC(=O)O)sc3cc2Cl)c(=O)n1C(F)F,≥ 90
2,Cc1nn(-c2cc3nc(SCCC(=O)O)sc3cc2Cl)c(=O)n1C(F)F,< 50
3,COC(=O)CSc1nc2cc(-n3nc(C)n(C(F)F)c3=O)c(Cl)cc2s1,≥ 90

# Test system: Chenopodium album
# Assay: Post-emergence herbicidal activity against Chenopodium album seedlings assessed as plant growth inhibition at 37.5 g ai/ha measured 15 days after compound treatment under greenhouse conditions
# Assay type: functional
# Conditions: 360 h, read-out: GI
row,Structure (SMILES),inhibition of growth at 37.5 g/ha [%]
1,Cc1nn(-c2cc3nc(SCC(=O)O)sc3cc2Cl)c(=O)n1C(F)F,80
2,Cc1nn(-c2cc3nc(SCCC(=O)O)sc3cc2Cl)c(=O)n1C(F)F,< 50
3,COC(=O)CSc1nc2cc(-n3nc(C)n(C(F)F)c3=O)c(Cl)cc2s1,≥ 90

# Test system: Amaranthus retroflexus
# Assay: Post emergence herbicidal activity against Amaranthus retroflexus seedlings assessed as plant growth inhibition at 75 g ai/ha measured 15 days after compound treatment under greenhouse conditions
# Assay type: functional
# Conditions: 360 h, read-out: GI
row,Structure (SMILES),inhibition of growth at 75 g/ha [%]
1,Cc1nn(-c2cc3nc(SCC(=O)O)sc3cc2Cl)c(=O)n1C(F)F,≥ 90
2,Cc1nn(-c2cc3nc(SCCC(=O)O)sc3cc2Cl)c(=O)n1C(F)F,< 50
3,COC(=O)CSc1nc2cc(-n3nc(C)n(C(F)F)c3=O)c(Cl)cc2s1,≥ 90

# Test system: Echinochloa crus-galli
# Assay: Post emergence herbicidal activity against Echinochloa crus-galli (barnyard grass) seedlings assessed as plant growth inhibition at 75 g ai/ha measured 15 days after compound treatment under greenhouse conditions
# Assay type: functional
# Conditions: 360 h, read-out: GI
row,Structure (SMILES),inhibition of growth at 75 g/ha [%]
1,Cc1nn(-c2cc3nc(SCC(=O)O)sc3cc2Cl)c(=O)n1C(F)F,< 50
2,Cc1nn(-c2cc3nc(SCCC(=O)O)sc3cc2Cl)c(=O)n1C(F)F,50
3,COC(=O)CSc1nc2cc(-n3nc(C)n(C(F)F)c3=O)c(Cl)cc2s1,50

# Biological target: T1, Protoporphyrinogen oxidase, chloroplastic (Nicotiana tabacum, UniProt O24163)
# T1 sequence (O24163 whole entry): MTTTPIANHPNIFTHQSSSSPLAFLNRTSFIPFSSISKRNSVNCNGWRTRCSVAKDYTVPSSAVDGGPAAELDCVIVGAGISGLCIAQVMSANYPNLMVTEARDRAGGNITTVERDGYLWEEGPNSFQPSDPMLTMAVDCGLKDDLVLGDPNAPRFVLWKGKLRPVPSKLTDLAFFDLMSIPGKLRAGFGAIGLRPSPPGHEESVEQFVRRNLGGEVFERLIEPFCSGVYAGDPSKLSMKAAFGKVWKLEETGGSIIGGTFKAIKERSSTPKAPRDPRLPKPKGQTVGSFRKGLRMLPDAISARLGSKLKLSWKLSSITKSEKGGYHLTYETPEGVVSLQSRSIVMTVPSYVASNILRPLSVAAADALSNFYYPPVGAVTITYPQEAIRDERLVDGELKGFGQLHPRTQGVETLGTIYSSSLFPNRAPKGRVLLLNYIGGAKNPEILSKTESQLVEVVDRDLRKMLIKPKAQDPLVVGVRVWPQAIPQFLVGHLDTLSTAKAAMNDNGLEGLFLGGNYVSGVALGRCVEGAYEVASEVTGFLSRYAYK
# Assay: Inhibition of Nicotiana tabacum (tobacco) recombinant PPO assessed as protoporphyrin IX formation at room temperature by fluorimetric assay
# Conditions: not given
row,pKi,Structure (SMILES)
1,4.99,Cc1nn(-c2cc3nc(SCC(=O)O)sc3cc2Cl)c(=O)n1C(F)F
2,4.75,Cc1nn(-c2cc3nc(SCCC(=O)O)sc3cc2Cl)c(=O)n1C(F)F
3,4.89,C=CCSc1nc2cc(-n3nc(C)n(C(F)F)c3=O)c(Br)cc2s1
4,4.82,COC(=O)CSc1nc2cc(-n3nc(C)n(C(F)F)c3=O)c(Cl)cc2s1

# Test system: Setaria faberi
# Assay: Post-emergence herbicidal activity against Setaria faberi (Giant Foxtail) seedlings assessed as plant growth inhibition at 150 g ai/ha measured 15 days after compound treatment under greenhouse conditions
# Assay type: functional
# Conditions: 360 h, read-out: GI
row,Structure (SMILES),inhibition of growth at 150 g/ha [%]
1,Cc1nn(-c2cc3nc(SCC(=O)O)sc3cc2Cl)c(=O)n1C(F)F,≥ 90
2,Cc1nn(-c2cc3nc(SCCC(=O)O)sc3cc2Cl)c(=O)n1C(F)F,< 50
3,C=CCSc1nc2cc(-n3nc(C)n(C(F)F)c3=O)c(Br)cc2s1,60
4,COC(=O)CSc1nc2cc(-n3nc(C)n(C(F)F)c3=O)c(Cl)cc2s1,≥ 90

# Test system: Amaranthus retroflexus
# Assay: Post emergence herbicidal activity against Amaranthus retroflexus seedlings assessed as plant growth inhibition at 37.5 g ai/ha measured 15 days after compound treatment under greenhouse conditions
# Assay type: functional
# Conditions: 360 h, read-out: GI
row,Structure (SMILES),inhibition of growth at 37.5 g/ha [%]
1,Cc1nn(-c2cc3nc(SCC(=O)O)sc3cc2Cl)c(=O)n1C(F)F,50
2,Cc1nn(-c2cc3nc(SCCC(=O)O)sc3cc2Cl)c(=O)n1C(F)F,< 50
3,COC(=O)CSc1nc2cc(-n3nc(C)n(C(F)F)c3=O)c(Cl)cc2s1,60

# Test system: Brassica juncea
# Assay: Post-emergence herbicidal activity against Brassica juncea seedlings assessed as plant growth inhibition at 37.5 g ai/ha measured 15 days after compound treatment under greenhouse conditions
# Assay type: functional
# Conditions: 360 h, read-out: GI
row,Structure (SMILES),inhibition of growth at 37.5 g/ha [%]
1,Cc1nn(-c2cc3nc(SCC(=O)O)sc3cc2Cl)c(=O)n1C(F)F,60
2,Cc1nn(-c2cc3nc(SCCC(=O)O)sc3cc2Cl)c(=O)n1C(F)F,50
3,COC(=O)CSc1nc2cc(-n3nc(C)n(C(F)F)c3=O)c(Cl)cc2s1,60

# Test system: Digitaria sanguinalis
# Assay: Post-emergence herbicidal activity against Digitaria sanguinalis (hairy crabgrass) seedlings assessed as plant growth inhibition at 37.5 g ai/ha measured 15 days after compound treatment under greenhouse conditions
# Assay type: functional
# Conditions: 360 h, read-out: GI
row,Structure (SMILES),inhibition of growth at 37.5 g/ha [%]
1,Cc1nn(-c2cc3nc(SCC(=O)O)sc3cc2Cl)c(=O)n1C(F)F,< 50
2,Cc1nn(-c2cc3nc(SCCC(=O)O)sc3cc2Cl)c(=O)n1C(F)F,< 50
3,COC(=O)CSc1nc2cc(-n3nc(C)n(C(F)F)c3=O)c(Cl)cc2s1,< 50

# Test system: Digitaria sanguinalis
# Assay: Post-emergence herbicidal activity against Digitaria sanguinalis (hairy crabgrass) seedlings assessed as plant growth inhibition at 75 g ai/ha measured 15 days after compound treatment under greenhouse conditions
# Assay type: functional
# Conditions: 360 h, read-out: GI
row,Structure (SMILES),inhibition of growth at 75 g/ha [%]
1,Cc1nn(-c2cc3nc(SCC(=O)O)sc3cc2Cl)c(=O)n1C(F)F,< 50
2,Cc1nn(-c2cc3nc(SCCC(=O)O)sc3cc2Cl)c(=O)n1C(F)F,< 50
3,COC(=O)CSc1nc2cc(-n3nc(C)n(C(F)F)c3=O)c(Cl)cc2s1,< 50

# Test system: Setaria faberi
# Assay: Post-emergence herbicidal activity against Setaria faberi (Giant Foxtail) seedlings assessed as plant growth inhibition at 37.5 g ai/ha measured 15 days after compound treatment under greenhouse conditions
# Assay type: functional
# Conditions: 360 h, read-out: GI
row,Structure (SMILES),inhibition of growth at 37.5 g/ha [%]
1,Cc1nn(-c2cc3nc(SCC(=O)O)sc3cc2Cl)c(=O)n1C(F)F,< 50
2,Cc1nn(-c2cc3nc(SCCC(=O)O)sc3cc2Cl)c(=O)n1C(F)F,60
3,COC(=O)CSc1nc2cc(-n3nc(C)n(C(F)F)c3=O)c(Cl)cc2s1,50

# Test system: Echinochloa crus-galli
# Assay: Post emergence herbicidal activity against Echinochloa crus-galli (barnyard grass) seedlings assessed as plant growth inhibition at 37.5 g ai/ha measured 15 days after compound treatment under greenhouse conditions
# Assay type: functional
# Conditions: 360 h, read-out: GI
row,Structure (SMILES),inhibition of growth at 37.5 g/ha [%]
1,Cc1nn(-c2cc3nc(SCC(=O)O)sc3cc2Cl)c(=O)n1C(F)F,< 50
2,Cc1nn(-c2cc3nc(SCCC(=O)O)sc3cc2Cl)c(=O)n1C(F)F,50
3,COC(=O)CSc1nc2cc(-n3nc(C)n(C(F)F)c3=O)c(Cl)cc2s1,50

# Test system: Digitaria sanguinalis
# Assay: Post-emergence herbicidal activity against Digitaria sanguinalis (hairy crabgrass) seedlings assessed as plant growth inhibition at 150 g ai/ha measured 15 days after compound treatment under greenhouse conditions
# Assay type: functional
# Conditions: 360 h, read-out: GI
row,Structure (SMILES),inhibition of growth at 150 g/ha [%]
1,Cc1nn(-c2cc3nc(SCC(=O)O)sc3cc2Cl)c(=O)n1C(F)F,≥ 90
2,Cc1nn(-c2cc3nc(SCCC(=O)O)sc3cc2Cl)c(=O)n1C(F)F,< 50
3,C=CCSc1nc2cc(-n3nc(C)n(C(F)F)c3=O)c(Br)cc2s1,< 50
4,COC(=O)CSc1nc2cc(-n3nc(C)n(C(F)F)c3=O)c(Cl)cc2s1,≥ 90

# Test system: Brassica juncea
# Assay: Post-emergence herbicidal activity against Brassica juncea seedlings assessed as plant growth inhibition at 150 g ai/ha measured 15 days after compound treatment under greenhouse conditions
# Assay type: functional
# Conditions: 360 h, read-out: GI
row,Structure (SMILES),inhibition of growth at 150 g/ha [%]
1,Cc1nn(-c2cc3nc(SCC(=O)O)sc3cc2Cl)c(=O)n1C(F)F,≥ 90
2,Cc1nn(-c2cc3nc(SCCC(=O)O)sc3cc2Cl)c(=O)n1C(F)F,≥ 90
3,C=CCSc1nc2cc(-n3nc(C)n(C(F)F)c3=O)c(Br)cc2s1,50
4,COC(=O)CSc1nc2cc(-n3nc(C)n(C(F)F)c3=O)c(Cl)cc2s1,≥ 90

# Test system: Brassica juncea
# Assay: Post-emergence herbicidal activity against Brassica juncea seedlings assessed as plant growth inhibition at 75 g ai/ha measured 15 days after compound treatment under greenhouse conditions
# Assay type: functional
# Conditions: 360 h, read-out: GI
row,Structure (SMILES),inhibition of growth at 75 g/ha [%]
1,Cc1nn(-c2cc3nc(SCC(=O)O)sc3cc2Cl)c(=O)n1C(F)F,≥ 90
2,Cc1nn(-c2cc3nc(SCCC(=O)O)sc3cc2Cl)c(=O)n1C(F)F,60
3,COC(=O)CSc1nc2cc(-n3nc(C)n(C(F)F)c3=O)c(Cl)cc2s1,80
